# Laboratory results: ChEMBL document CHEMBL5543174, “A Nonbactericidal Anionic Antimicrobial Peptide Provides Prophylactic and Therapeutic Efficacies against Bacterial Infections in Mice by Immunomodulatory-Antithrombotic Duality” (J Med Chem, 2024)
# Activity calls are given as the source filed them. No cut-off for these calls is given here.
# How the values were obtained:
# Escherichia coli [1] = assay: Antimicrobial activity against Escherichia coli ATCC 25922 assessed as inhibition of microbial growth at <= 200 ug/ml incubated for 18 hrs by micro-broth dilution method; assay type: functional, organism-based; details: dose <= 200.0 µg/ml
# Enterococcus faecalis = assay: Antimicrobial activity against Enterococcus faecalis ATCC 29212 assessed as inhibition of microbial growth at <= 200 ug/ml incubated for 18 hrs by micro-broth dilution method; assay type: functional, organism-based; details: dose <= 200.0 µg/ml
# Staphylococcus aureus [2] = assay: Antimicrobial activity against Staphylococcus aureus ATCC 25923 assessed as reduction in microbial colony forming unit at 200 ug/ml incubated for 1 to 4 hrs by time-kill kinetics based analysis; assay type: functional, organism-based; details: dose 200.0 µg/ml, time 1-4 hrs
# Escherichia coli [3] = assay: Antimicrobial activity against Escherichia coli ATCC 25922 assessed as reduction in microbial colony forming unit at 200 ug/ml incubated for 1 to 4 hrs by time-kill kinetics based analysis; assay type: functional, organism-based; details: dose 200.0 µg/ml, time 1-4 hrs
# Staphylococcus aureus [4] = assay: Antimicrobial activity against Methicillin-resistant Staphylococcus aureus assessed as reduction in metabolic activity at < 200 ug/ml incubated for 1 to 4 hrs by CCK-8 assay; assay type: functional, organism-based; details: dose < 200.0 µg/ml, time 1-4 hrs
# Staphylococcus aureus [5] = assay: Antibacterial activity against Staphylococcus aureus ATCC 25923 infected in C57BL/6 mouse assessed as reduction in bacterial load at 10 mg/kg,ip administrated 5 hrs after bacterial infection; assay type: functional, organism-based
# Escherichia coli [6] = assay: Antibacterial activity against Escherichia coli ATCC 25922 infected in C57BL/6 mouse assessed as reduction in bacterial load at 10 mg/kg,ip pre-administrated 5 hrs before bacterial infection; assay type: functional, organism-based
# Escherichia coli [7] = assay: Antibacterial activity against Escherichia coli ATCC 25922 infected in C57BL/6 mouse assessed as reduction in bacterial load at 10 mg/kg,ip administrated 5 hrs after bacterial infection; assay type: functional, organism-based
# Staphylococcus aureus [8] = assay: Antibacterial activity against Staphylococcus aureus ATCC 25923 infected in C57BL/6 mouse assessed as reduction in IL-6 level in peritoneal fluid at 10 mg/kg,ip pre-administrated 5 hrs before bacterial infection measured after 24 hrs by ELISA; assay type: functional, organism-based; details: time 29.0 hrs
# Escherichia coli [9] = assay: Antibacterial activity against Escherichia coli ATCC 25922 infected in C57BL/6 mouse assessed as reduction in TNF-alpha level in peritoneal fluid at 10 mg/kg,ip pre-administrated 5 hrs before bacterial infection measured after 24 hrs by ELISA; assay type: functional, organism-based; details: time 29.0 hrs
# Escherichia coli [10] = assay: Antibacterial activity against Escherichia coli ATCC 25922 infected in C57BL/6 mouse assessed as reduction in IL-6 level in peritoneal fluid at 10 mg/kg,ip pre-administrated 5 hrs before bacterial infection measured after 24 hrs by ELISA; assay type: functional, organism-based; details: time 29.0 hrs
# Staphylococcus aureus [11] = assay: Antibacterial activity against Methicillin-resistant Staphylococcus aureus infected in C57BL/6 mouse assessed as reduction in IL-1beta level in peritoneal fluid at 10 mg/kg,ip pre-administrated 5 hrs before bacterial infection measured after 24 hrs by ELISA; assay type: functional, organism-based; details: time 29.0 hrs
# Staphylococcus aureus [12] = assay: Antibacterial activity against Staphylococcus aureus ATCC 25923 infected in C57BL/6 mouse assessed as reduction in IL-1beta level in serum at 10 mg/kg,ip administrated 5 hrs after bacterial infection measured after 24 hrs by ELISA; assay type: functional, organism-based; details: time 19.0 hrs
# Escherichia coli [13] = assay: Antibacterial activity against Escherichia coli ATCC 25922 infected in C57BL/6 mouse assessed as reduction in TNF-alpha level in serum at 10 mg/kg,ip pre-administrated 5 hrs before bacterial infection measured after 24 hrs by ELISA; assay type: functional, organism-based; details: time 29.0 hrs
# Escherichia coli [14] = assay: Antibacterial activity against Escherichia coli ATCC 25922 infected in C57BL/6 mouse assessed as reduction in IL-1beta level in serum at 10 mg/kg,ip administrated 5 hrs after bacterial infection measured after 24 hrs by ELISA; assay type: functional, organism-based; details: time 19.0 hrs
# Escherichia coli [15] = assay: Antibacterial activity against Carbapenem-resistant Escherichia coli infected in C57BL/6 mouse assessed as reduction in TNF-alpha level in serum at 10 mg/kg,ip pre-administrated 5 hrs before bacterial infection measured after 24 hrs by ELISA; assay type: functional, organism-based; details: time 29.0 hrs
# Escherichia coli [16] = assay: Antibacterial activity against Carbapenem-resistant Escherichia coli infected in C57BL/6 mouse assessed as reduction in inflammatory injury in lung at 10 mg/kg,ip administrated 5 hrs after bacterial infection measured after 24 hrs by hematoxylin and eosin staining based analysis; assay type: functional, organism-based; details: time 19.0 hrs
# Staphylococcus aureus [17] = assay: Antibacterial activity against Staphylococcus aureus ATCC 25923 infected in C57BL/6 mouse assessed as increase in survival rate at 10 mg/kg,ip administrated 5 hrs after bacterial infection measured after 7 days; assay type: functional, organism-based; details: time 7.0 day
# Escherichia coli [18] = assay: Antibacterial activity against Escherichia coli ATCC 25922 infected in C57BL/6 mouse assessed as increase in survival rate at 10 mg/kg,ip administrated 5 hrs after bacterial infection measured after 7 days; assay type: functional, organism-based; details: time 7.0 day
# Mus musculus [19] = assay: Immunomodulatory activity in clodronate liposome immunosuppressed C57BL/6 mouse with neutrophil depletion model assessed as change in B-lymphocytes in peritoneal lavage at 10 mg/kg,ip administration measured after 5 to 24 hrs by flow cytometry; assay type: functional, organism-based; details: time 5-24 hrs
# Peritoneal macrophage [20] = assay: Immunomodulatory activity in mouse Peritoneal macrophage assessed as decrease in LTA-induced IL-1beta production at 25 to 100 ug/ml incubated for 6 hrs by ELISA; assay type: functional, cell-based; details: dose 25-100 µg/ml
# Peritoneal macrophage [21] = assay: Induction of chemotaxis in mouse Peritoneal macrophage assessed as upregulation of MCP-1 production at 100 ug/ml preincubated with KN-62 followed by compound addition by ELISA; assay type: functional, cell-based; details: dose 100.0 µg/ml
# Peritoneal macrophage [22] = assay: Immunoregulatory activity in mouse Peritoneal macrophage assessed as upregulation of ERK phosphorylation incubated for 1 hr by Western blotting analysis; assay type: functional, cell-based
# Peritoneal macrophage [23] = assay: Immunoregulatory activity in mouse Peritoneal macrophage assessed as upregulation of p38 phosphorylation incubated for 1 hr by Western blotting analysis; assay type: functional, cell-based
# Peritoneal macrophage [24] = assay: Immunoregulatory activity in mouse Peritoneal macrophage assessed as change in total p65 expression at 25 to 100 ug/ml incubated for 1 hr by Western blotting analysis; assay type: functional, cell-based; details: dose 25-100 µg/ml
# Mus musculus [25] = assay: Antithrombotic activity in BALB/c mouse dorsal skin defect model assessed as increase in skin bleeding time at 10 mg/kg,SC administration; assay type: functional, organism-based
# Mus musculus [26] = assay: Antithrombotic activity in BALB/c mouse dorsal skin defect model assessed as increase in skin bleeding time at 30 mg/kg,SC administration; assay type: functional, organism-based
# Plasma = assay: Anticoagulation activity in human platelet poor plasma assessed as elongation of prothrombin time at 100 ug/ml measured after 5 mins; assay type: functional, cell-free; details: dose 100.0 µg/ml
# Mus musculus [27] = assay: Anticoagulation activity in mouse assessed as change in plasma APC expression at 10 mg/kg,ip measured after 24 hrs by ELISA; assay type: functional, organism-based
# Mus musculus [28] = assay: Anticoagulation activity in mouse infected with Methicillin-resistant Staphylococcus aureus assessed as increase in plasma AT-III expression at 10 mg/kg,ip administrated 5 hrs after bacterial infection measured after 24 hrs by ELISA; assay type: functional, organism-based; details: time 19.0 hrs
# Mus musculus [29] = assay: Anticoagulation activity in mouse infected with Carbapenem-resistant Escherichia coli assessed as increase in plasma TFPI expression at 10 mg/kg,ip pre-administrated 5 hrs before bacterial infection measured after 24 hrs by ELISA; assay type: functional, organism-based; details: time 29.0 hrs
# Escherichia coli [30] = assay: Antibacterial activity against Carbapenem-resistant Escherichia coli infected in C57BL/6 mouse with clodronate liposome-induced monocyte depletion model assessed as decrease in bacterial burden in peritoneal cavity at 10 mg/kg,ip administrated 5 hrs after bacterial infection measured after 24 hrs; assay type: functional, organism-based; details: time 19.0 hrs
structure (smiles),measurement,setting,value
CC[C@H](C)[C@H](NC(=O)[C@@H]1CSSC[C@H](NC(=O)[C@H](CCC(=O)O)NC(=O)[C@@H](NC(=O)[C@H](CCCCN)NC(=O)[C@H](Cc2c[nH]cn2)NC(=O)[C@@H](NC(=O)[C@H](CCCCN)NC(=O)[C@H](CCC(=O)O)NC(=O)[C@H](C)NC(=O)[C@H](CCC(=O)O)NC(=O)[C@H](CCC(=O)O)NC(=O)[C@H](CCC(=O)O)NC(=O)[C@H](C)N)[C@@H](C)O)[C@@H](C)O)C(=O)N[C@@H](CC(C)C)C(=O)N[C@@H](CCC(=O)O)C(=O)N1)C(=O)N[C@@H](Cc1ccccc1)C(=O)N[C@H](C(=O)N[C@@H](CC(C)C)C(=O)N[C@@H](CC(C)C)C(=O)N1CCC[C@H]1C(=O)N1CCC[C@@H]1C(=O)N[C@H](C)C(=O)O)[C@@H](C)O,Activity,Escherichia coli [1],inactive
same,Activity,Enterococcus faecalis,inactive
same,Activity,Staphylococcus aureus [2],inactive
same,Activity,Escherichia coli [3],inactive
same,Activity,Staphylococcus aureus [4],inactive
same,Activity,Staphylococcus aureus [5],Active
same,Activity,Escherichia coli [6],Active
same,Activity,Escherichia coli [7],Active
same,Activity,Staphylococcus aureus [8],Active
same,Activity,Escherichia coli [9],Active
same,Activity,Escherichia coli [10],Active
same,Activity,Staphylococcus aureus [11],Active
same,Activity,Staphylococcus aureus [12],Active
same,Activity,Escherichia coli [13],Active
same,Activity,Escherichia coli [14],Active
same,Activity,Escherichia coli [15],Active
same,Activity,Escherichia coli [16],Active
same,Activity,Staphylococcus aureus [17],Active
same,Activity,Escherichia coli [18],Active
same,Activity,Mus musculus [19],inactive
same,Activity,Peritoneal macrophage [20],inactive
same,Activity,Peritoneal macrophage [21],Active
same,Activity,Peritoneal macrophage [22],Dose-Dependent Effect
same,Activity,Peritoneal macrophage [23],Dose-Dependent Effect
same,Activity,Peritoneal macrophage [24],inactive
same,Activity,Mus musculus [25],inactive
same,Activity,Mus musculus [26],inactive
same,Activity,Plasma,inactive
same,Activity,Mus musculus [27],inactive
same,Activity,Mus musculus [28],Active
same,Activity,Mus musculus [29],Active
same,Activity,Escherichia coli [30],inactive
